Consider four compounds from patent EP4356928A1, “NUCLEOSIDE DIPHOSPHATE OR DIPHOSPHONATE PRODRUGS, OR NUCLEOSIDE ANALOGUE DIPHOSPHATE OR DIPHOSPHONATE PRODRUGS” (Universität Hamburg, priority 2022, dated 2024).

A word on the CC50: it is the concentration giving 50% cytotoxicity.

The subject of one data set is CD4^+ T-cell (CEM). Kind of data set: Cytotoxicity: inhibition of CD4+ T-cell (CEM) proliferation. The following applies: ratio between cell toxicity (CC50) and EC50 CEM/TK-. The protocol:
(§1) In addition, a selectivity index (SI) was determined. The selectivity index is the ratio between cell toxicity and […], the ratio between cell toxicity (see Table 4) and EC50 CEM/TK^- (see right column of Table 3).
(§2) Table 4: Cytotoxicity (CC50 [µM]) and selectivity index (SI) of tested prodrug compounds.
Turning to `CCCCCCCCCCCCCCCCCCP(=O)(OCCCC)OP(=O)(O)OC[C@@H]1C=C[C@H](n2cnc3c(NC4CC4)nc(N)nc32)C1` (stereo partly shown) [No 26], the “Selectivity index (SI)” value is recorded as over 100000.

Take `Cc1cn([C@H]2C=C[C@@H](CO)O2)c(=O)[nH]c1=O` [d4T, stavudine, reference compound]: the “Selectivity index (SI)” value is on record as over 1.

Tested on in another data set: not listed separately
The description is as above. The conditions noted are these: human. The procedure: as §1, §2
Compound `Cc1cn([C@H]2C[C@H](F)[C@@H](CO)O2)c(=O)[nH]c1=O` [FLT, alovudine, reference compound] gave a CC50 of over 100 µM.

On to `Cc1cn([C@H]2C=C[C@@H](CO)O2)c(=O)[nH]c1=O` [d4T, stavudine, reference compound], for which the CC50 was over 50 µM.

The same data set, now with this note: human, cem cells.
Consider `CCCCCCCCCCCCCCCCCCOP(=O)(OCCCC)OP(=O)(O)OC[C@@H]1C=C[C@H](n2cc(C)c(=O)[nH]c2=O)O1` (stereo partly shown) [No 16], for which half-maximal cytotoxicity (CC50) was put at 41.3 µM.

For `CCCCCCCCCCCCCCCCCCP(=O)(OCCCC)OP(=O)(O)OC[C@@H]1C=C[C@H](n2cnc3c(NC4CC4)nc(N)nc32)C1` (stereo partly shown) [No 26], the CC50 is over 100 µM.

Tested on in another data set: not listed separately
Briefly: Stability (hydrolysis half-life) in CEM/0 cell extracts, RP-18 HPLC. In kind it is in vitro ADME. The conditions noted are these: human, read-out: Half-lives CEM T cell extracts (converted). The protocol: (§3) Stability tests regarding a number of differently substituted β-phosphate and β-phosphonate nucleoside prodrugs were conducted. The chemical and biological stability was tested in different media (phosphate-buffered saline PBS (pH 7.3), pig liver esterase (PLE), CEM cell extracts) and rated by determining the half-live of these compounds. The products of the respective hydrolysis were detected by analytical RP-18 HPLC.
(§4) Results of the hydrolysis experiments in different media (PBS (pH = 7.3), PLE (pig liver esterase) in PBS, or CEM-T cell extracts) are shown in Table 2.
(§5) Table 2: Half-lives (in hours) of the β-phosph(on)ate prodrug compounds of the invention in phosphate buffer saline (PBS, pH 7.3), PLE (100 units/mL pig liver esterase in PBS) and CEM/0 cell extracts. n.d. = not determined.
In the case of `CCCCCCCCCCCCCCCCCCOP(=O)(OCCCC)OP(=O)(O)OC[C@@H]1C=C[C@H](n2cc(C)c(=O)[nH]c2=O)O1` (stereo partly shown) [No 16], the half-life was over 1080 min.

Consider `CCCCCCCCCCCCCCCCCCP(=O)(OCCCC)OP(=O)(O)OC[C@@H]1C=C[C@H](n2cnc3c(NC4CC4)nc(N)nc32)C1` (stereo partly shown) [No 26], for which the half-life was over 600 min.

For the next data set, the system named is HIV-2 (ROD). Kind of data set: Inhibition of HIV-2 replication in thymidine kinase-deficient CEM/TK- cell cultures. The format is cell-based. The following applies: HIV-2 in CEM/TK- cells, versus d4T. The procedure: (§6) All β-phosph(on)ate prodrug compounds were evaluated for their activity to inhibit the replication of HIV in HIV-1- and HIV-2-infected wild-type (CEM/0) cell cultures and in HIV-2-infected mutant thymidine kinase-deficient (CEM/TK^-) cell cultures (see Table 3).
(§7) Antiviral activity was determined in CD4^+ T-lymphocytes: 50% effective concentration (EC50 [µM]).
Consider `CCCCCCCCCCCCCCCCCCOP(=O)(OCCCC)OP(=O)(O)OC[C@@H]1C=C[C@H](n2cc(C)c(=O)[nH]c2=O)O1` (stereo partly shown) [No 16], for which the “improvement of antiviral activity as compared to the nucleoside analogue d4T” value was 45.400 fold.

Staying with this data set, now noted: Human immunodeficiency virus 2, CEM-TK(-), read-out: Antiviral activity EC50 CEM/TK^- HIV-2 (ROD).
As to `Cc1cn([C@H]2C[C@H](F)[C@@H](CO)O2)c(=O)[nH]c1=O` [FLT, alovudine, reference compound], the EC50 is over 100000 nM.

Turning to `CCCCCCCCCCCCCCCCCCOP(=O)(OCCCC)OP(=O)(O)OC[C@@H]1C=C[C@H](n2cc(C)c(=O)[nH]c2=O)O1` (stereo partly shown) [No 16], the EC50 was found to be 1.1 nM.

`CCCCCCCCCCCCCCCCCCP(=O)(OCCCC)OP(=O)(O)OC[C@@H]1C=C[C@H](n2cnc3c(NC4CC4)nc(N)nc32)C1` (stereo partly shown) [No 26]: the EC50 was under 1 nM.

With `Cc1cn([C@H]2C=C[C@@H](CO)O2)c(=O)[nH]c1=O` [d4T, stavudine, reference compound], the EC50 was over 50000 nM.

Another data set has as its system HIV-2 (ROD). Kind of data set: Inhibition of HIV-2 replication in wild-type CEM/0 cell cultures. In kind it is cell-based. The conditions noted are these: Human immunodeficiency virus 2, CCRF-CEM, read-out: Antiviral activity EC50 HIV-2 (ROD). The protocol: as §6, §7
For the compound `Cc1cn([C@H]2C[C@H](F)[C@@H](CO)O2)c(=O)[nH]c1=O` [FLT, alovudine, reference compound], the EC50 stood at 4.3 ± 1.7 nM.

In the case of `CCCCCCCCCCCCCCCCCCOP(=O)(OCCCC)OP(=O)(O)OC[C@@H]1C=C[C@H](n2cc(C)c(=O)[nH]c2=O)O1` (stereo partly shown) [No 16], the EC50 is 4.4 ± 1.3 nM.

Regarding `CCCCCCCCCCCCCCCCCCP(=O)(OCCCC)OP(=O)(O)OC[C@@H]1C=C[C@H](n2cnc3c(NC4CC4)nc(N)nc32)C1` (stereo partly shown) [No 26], the EC50 came out at 26 ± 18 nM.

Regarding `Cc1cn([C@H]2C=C[C@@H](CO)O2)c(=O)[nH]c1=O` [d4T, stavudine, reference compound], the EC50 was 970 ± 500 nM.

The subject of the next data set is HIV-1 (HE). Briefly: Inhibition of HIV-1 replication in wild-type CEM/0 cell cultures. In kind it is cell-based. The following applies: Human immunodeficiency virus 1, CCRF-CEM, read-out: Antiviral activity EC50 HIV-1 (HE). The procedure:
as §6, §7
For the compound `CCCCCCCCCCCCCCCCCCOP(=O)(OCCCC)OP(=O)(O)OC[C@@H]1C=C[C@H](n2cc(C)c(=O)[nH]c2=O)O1` (stereo partly shown) [No 16], the EC50 was 33 ± 22 nM.

Consider `CCCCCCCCCCCCCCCCCCP(=O)(OCCCC)OP(=O)(O)OC[C@@H]1C=C[C@H](n2cnc3c(NC4CC4)nc(N)nc32)C1` (stereo partly shown) [No 26], for which the EC50 stood at 34 ± 13 nM.

Take `Cc1cn([C@H]2C=C[C@@H](CO)O2)c(=O)[nH]c1=O` [d4T, stavudine, reference compound]: the EC50 is 330 ± 130 nM.

Staying with this data set, now noted: Human immunodeficiency virus 1, CCRF-CEM; CD4+ T-lymphocytes (CEM/0); mean ±SD of n=2-3; read-out: Antiviral activity EC50 HIV-1 (HE).
Turning to `Cc1cn([C@H]2C[C@H](F)[C@@H](CO)O2)c(=O)[nH]c1=O` [FLT, alovudine, reference compound], the EC50 turned out to be 2.5 ± 2.9 nM.

Tested on in the next data set: not listed separately
Briefly: Stability (hydrolysis half-life) against pig liver esterase in PBS, RP-18 HPLC. In kind it is in vitro ADME. The conditions noted are these: pH 7.3; 100 units/mL pig liver esterase in PBS; read-out: Half-lives PLE (converted). The protocol: as §3, §4, §5
`CCCCCCCCCCCCCCCCCCOP(=O)(OCCCC)OP(=O)(O)OC[C@@H]1C=C[C@H](n2cc(C)c(=O)[nH]c2=O)O1` (stereo partly shown) [No 16]: the half-life is over 6.25 days.

`CCCCCCCCCCCCCCCCCCP(=O)(OCCCC)OP(=O)(O)OC[C@@H]1C=C[C@H](n2cnc3c(NC4CC4)nc(N)nc32)C1` (stereo partly shown) [No 26]: the half-life is over 6.25 days.

Tested on in another data set: not listed separately
Briefly: Chemical stability (hydrolysis half-life) in phosphate-buffered saline, RP-18 HPLC. The format is physicochemical. The conditions noted are these: phosphate buffer saline (PBS, pH 7.3); read-out: Half-lives PBS (converted). The procedure:
as §3, §4, §5
For `CCCCCCCCCCCCCCCCCCOP(=O)(OCCCC)OP(=O)(O)OC[C@@H]1C=C[C@H](n2cc(C)c(=O)[nH]c2=O)O1` (stereo partly shown) [No 16], the half-life was over 41.7 days.

As to `CCCCCCCCCCCCCCCCCCP(=O)(OCCCC)OP(=O)(O)OC[C@@H]1C=C[C@H](n2cnc3c(NC4CC4)nc(N)nc32)C1` (stereo partly shown) [No 26], the half-life is over 41.7 days.
